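Briefly, cells in 96-well plates were exposed to five compound concentrations for 48 h, and endpoints were estimated by linear interpolation. At the GI50, growth is halved.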 Active and inactive are the calls of the source. No stated cut-off is given here; in the data, active = GI50 up to about 1.1 µM and inactive = higher.
Tests used:
Experiment in all cases: growth of human tumour cells (NCI), 48 h
786-0 = test system: 786-0
BT-549 = test system: BT-549
CCRF-CEM = test system: CCRF-CEM
HCC 2998 = test system: HCC 2998
HT-29 = test system: HT-29
LOX IMVI = test system: LOX IMVI
MDA-MB-435 = test system: MDA-MB-435
MDA-N = test system: MDA-N
Malme-3M = test system: Malme-3M
NCI-H23 = test system: NCI-H23
NCI-H522 = test system: NCI-H522
NCI/ADR-RES = test system: NCI/ADR-RES
RPMI-8226 = test system: RPMI-8226
SF-539 = test system: SF-539
SR = test system: SR
SW-620 = test system: SW-620
TK-10 = test system: TK-10
U-251 = test system: U-251
UACC-62 = test system: UACC-62

SMILES	GI50 (786-0)	GI50 (BT-549)	GI50 (CCRF-CEM)	GI50 (HCC 2998)	GI50 (HT-29)	GI50 (LOX IMVI)	GI50 (MDA-MB-435)	GI50 (MDA-N)	GI50 (Malme-3M)	GI50 (NCI-H23)	GI50 (NCI-H522)	GI50 (NCI/ADR-RES)	GI50 (RPMI-8226)	GI50 (SF-539)	GI50 (SR)	GI50 (SW-620)	GI50 (TK-10)	GI50 (U-251)	GI50 (UACC-62)
c1ccc2c(c1)Nc1c3ccccc3nc3cccc-2c13	0.638 µM (active)	7.43 µM (inactive)	0.305 µM (active)	1.02 µM (active)	0.546 µM (active)	0.877 µM (active)	1.61 µM (inactive)	1.17 µM (inactive)	1.66 µM (inactive)	1.35 µM (inactive)	1.23 µM (inactive)	1.05 µM (active)	0.587 µM (active)	1.6 µM (inactive)	0.462 µM (active)	0.283 µM (active)	1.73 µM (inactive)	0.998 µM (active)	1.63 µM (inactive)
CCc1n[nH]c(=O)n1N1C(=O)CCC1=O	> 100 µM (inactive)	> 100 µM (inactive)	> 100 µM (inactive)	> 100 µM (inactive)	> 100 µM (inactive)	> 100 µM (inactive)	> 100 µM (inactive)	> 100 µM (inactive)	> 100 µM (inactive)		> 100 µM (inactive)	> 100 µM (inactive)	> 100 µM (inactive)		> 100 µM (inactive)	> 100 µM (inactive)	> 100 µM (inactive)	> 100 µM (inactive)	> 100 µM (inactive)
C(=N\NC1=NCCN1)/c1ccc(-c2cn3cc(/C=N/NC4=NCCN4)ccc3n2)cc1	19 µM (inactive)	18.2 µM (inactive)	2.74 µM (inactive)	> 47.2 µM (inactive)	11.9 µM (inactive)	7.74 µM (inactive)	24.5 µM (inactive)	> 49 µM (inactive)	2.82 µM (inactive)	> 100 µM (inactive)	10.9 µM (inactive)	> 66.2 µM (inactive)	16.6 µM (inactive)	> 100 µM (inactive)	3.33 µM (inactive)	> 28.2 µM (inactive)	26.6 µM (inactive)	15.5 µM (inactive)	40.6 µM (inactive)
Cc1ccc([C@H]2CC(=O)C[C@H](c3ccc(C)cc3)C23C(=O)c2ccccc2C3=O)cc1	17.1 µM (inactive)	34.3 µM (inactive)	14 µM (inactive)	57.3 µM (inactive)	67.3 µM (inactive)	9.98 µM (inactive)	41.3 µM (inactive)	52.8 µM (inactive)	46.7 µM (inactive)	> 100 µM (inactive)	3.23 µM (inactive)	10.1 µM (inactive)	43.2 µM (inactive)	32.4 µM (inactive)	13.2 µM (inactive)	94.6 µM (inactive)	22.2 µM (inactive)	16.7 µM (inactive)	37.7 µM (inactive)
CCOC(=O)c1c(N2CCOCC2)[nH]c(=O)c(C(c2cccs2)c2c(O)c(C(=O)OCC)c(N3CCOCC3)[nH]c2=O)c1O	> 100 µM (inactive)	> 100 µM (inactive)	> 100 µM (inactive)	> 100 µM (inactive)	> 100 µM (inactive)	> 100 µM (inactive)	> 100 µM (inactive)	> 100 µM (inactive)	> 100 µM (inactive)	> 100 µM (inactive)	> 100 µM (inactive)	> 100 µM (inactive)	> 100 µM (inactive)	> 100 µM (inactive)	> 100 µM (inactive)	> 100 µM (inactive)	> 100 µM (inactive)	> 100 µM (inactive)	> 100 µM (inactive)
CC1=C(Nc2c(C)cc(O)cc2O)C(=O)C=c2oc3c(c21)C(C)=C(Nc1c(C)cc(O)cc1O)C(=O)C=3	54.1 µM (inactive)	32.9 µM (inactive)		23.2 µM (inactive)	28 µM (inactive)		15.9 µM (inactive)	18.6 µM (inactive)	21.9 µM (inactive)	20.3 µM (inactive)	20.1 µM (inactive)	> 100 µM (inactive)	28.8 µM (inactive)	19.5 µM (inactive)	0.0313 µM (active)	35.5 µM (inactive)	94.8 µM (inactive)	37.8 µM (inactive)	37.2 µM (inactive)
CCCCCCCC(=O)NC(C)(C)C(=O)NCC(=O)NC(CC(C)C)C(=O)NC(C)(C)C(=O)NCC(=O)NCC(=O)NC(CC(C)C)C(=O)NC(C)(C)C(=O)NCC(=O)NC(C(=O)NC(CO)CC(C)C)C(C)CC (stereo not given)	4.61 µM (inactive)	3.59 µM (inactive)	4.26 µM (inactive)	4.29 µM (inactive)	4.05 µM (inactive)	3.53 µM (inactive)	3.94 µM (inactive)	4 µM (inactive)	4.82 µM (inactive)	3.93 µM (inactive)	3.87 µM (inactive)	4.83 µM (inactive)	0.935 µM (active)		3.99 µM (inactive)	4.02 µM (inactive)	4.66 µM (inactive)	2.39 µM (inactive)	4.14 µM (inactive)
COC(=O)/C(=N/NC(N)=O)C(C(=O)C(=O)Nc1ccc(C)cc1)c1nc2ccc(C(=O)c3ccccc3)cc2nc1O (stereo not given)	> 100 µM (inactive)	> 100 µM (inactive)	49 µM (inactive)	34.2 µM (inactive)	80.9 µM (inactive)	> 100 µM (inactive)	37 µM (inactive)	64.1 µM (inactive)	> 100 µM (inactive)	> 100 µM (inactive)	50.5 µM (inactive)	39.3 µM (inactive)		85.1 µM (inactive)	1.53 µM (inactive)	> 100 µM (inactive)	> 100 µM (inactive)	> 100 µM (inactive)	51.4 µM (inactive)
O=c1[nH]c2[nH]c(-c3ccc(Br)cc3)cc2c2ccccc12	35.6 µM (inactive)	76.4 µM (inactive)		> 100 µM (inactive)	35.6 µM (inactive)	> 10 µM (inactive)	> 100 µM (inactive)	> 100 µM (inactive)	> 100 µM (inactive)	> 100 µM (inactive)	> 100 µM (inactive)	50.1 µM (inactive)	70.5 µM (inactive)	> 100 µM (inactive)	11.3 µM (inactive)	> 100 µM (inactive)	52 µM (inactive)	28.8 µM (inactive)	> 100 µM (inactive)
CCOC(=O)C(C(=O)OCC)=C1SC(=N\c2ccccc2)/C(=N/c2ccccc2)N1c1ccccc1	> 100 µM (inactive)	> 100 µM (inactive)	18.4 µM (inactive)	45.8 µM (inactive)	82.2 µM (inactive)		> 100 µM (inactive)	> 100 µM (inactive)	> 100 µM (inactive)	> 100 µM (inactive)	76.6 µM (inactive)	> 100 µM (inactive)	> 100 µM (inactive)	> 100 µM (inactive)	> 100 µM (inactive)			> 100 µM (inactive)	53.6 µM (inactive)
COC(=O)/C=C\C(C#N)(C#N)/N=C/c1sccc1C	1.94 µM (inactive)	3.15 µM (inactive)	1 µM (active)	15.2 µM (inactive)	1.73 µM (inactive)	1.3 µM (inactive)	3.58 µM (inactive)	3.59 µM (inactive)	3.18 µM (inactive)	7.03 µM (inactive)	0.268 µM (active)	11.8 µM (inactive)	5.04 µM (inactive)		2.36 µM (inactive)	1.58 µM (inactive)	1.86 µM (inactive)	10 µM (inactive)	6.62 µM (inactive)
CCOP(=O)(OCC)/C(=C/NC(=S)c1ccncc1)C(=O)OC	> 100 µM (inactive)	> 100 µM (inactive)	20.6 µM (inactive)	> 100 µM (inactive)	> 100 µM (inactive)	> 100 µM (inactive)	> 100 µM (inactive)	> 100 µM (inactive)		> 100 µM (inactive)	> 100 µM (inactive)	> 100 µM (inactive)	> 100 µM (inactive)	> 100 µM (inactive)	4.48 µM (inactive)	> 100 µM (inactive)	> 100 µM (inactive)	> 100 µM (inactive)	> 100 µM (inactive)
COc1ccc2oc(C(=O)N3CC(CCl)c4ccc(N)cc43)cc2c1 (stereo not given)	0.133 µM (active)	0.299 µM (active)	0.36 µM (active)	0.489 µM (active)	0.357 µM (active)	0.356 µM (active)	0.332 µM (active)	0.553 µM (active)		0.174 µM (active)	0.0189 µM (active)	0.213 µM (active)	0.226 µM (active)	0.481 µM (active)	0.16 µM (active)	0.348 µM (active)	2.9 µM (inactive)	0.333 µM (active)	0.192 µM (active)
Cn1cc2c(=O)n3ncn(-c4ccc(Br)cc4)c3nc2n1	> 100 µM (inactive)	> 100 µM (inactive)	> 100 µM (inactive)	> 100 µM (inactive)	> 100 µM (inactive)		> 100 µM (inactive)	> 100 µM (inactive)	> 100 µM (inactive)	> 100 µM (inactive)	> 100 µM (inactive)	> 100 µM (inactive)	> 100 µM (inactive)	> 100 µM (inactive)	> 100 µM (inactive)	> 100 µM (inactive)	> 100 µM (inactive)	> 100 µM (inactive)	> 100 µM (inactive)
O=C1CCC2(CCO1)OCCO2	> 100 µM (inactive)	> 100 µM (inactive)	> 100 µM (inactive)	> 100 µM (inactive)	> 100 µM (inactive)	> 100 µM (inactive)	> 100 µM (inactive)	> 100 µM (inactive)	> 100 µM (inactive)	> 100 µM (inactive)	> 100 µM (inactive)	> 100 µM (inactive)		> 100 µM (inactive)	> 100 µM (inactive)	> 100 µM (inactive)	> 100 µM (inactive)	> 100 µM (inactive)	> 100 µM (inactive)

— ChEMBL document CHEMBL1201862, “PubChem BioAssay data set” (2004)
